Values quoted from earlier work as cited in patent US12419901B2, “Prodrugs of deoxynucleosides for treatment of diseases caused by unbalanced nucleotide pools” (UCB BIOSCIENCES, INC., priority 2018, dated 2025).

Tested on: dGK deficient patient derived fibroblasts
Conditions: 50 μM in cell culture medium, quiescent dGK-deficient fibroblasts

Nc1nc2c(ncn2[C@H]2C[C@H](O)[C@@H](CO)O2)c(=O)[nH]1 [dGuo, deoxyguanosine]
mtDNA depletion (previously demonstrated): sufficient to prevent this depletion
